We go through six molecules from ChEMBL document CHEMBL1141907, “Synthesis and in vitro biological evaluation of a carbon glycoside analogue of morphine-6-glucuronide” (Bioorg Med Chem Lett, 2005).

SMILES strings stand for the structures. Values joined by “and” are separate entries in the source; they are usually repeats but may differ in a detail not shown here. Identical values can stand only once. Active and inactive are the calls of the source. The calls are words filed in the database; no cut-off is given here. A value given as a limit tells only on which side of the number the result lay.

Series [1] deals with Mu-type opioid receptor (Homo sapiens, UniProt P35372). The series can be described thus: Inhibition of [3H]-DAMGO binding to recombinant human Opioid receptor mu 1.
In series [2] the target is Opioid receptors; mu & delta (Homo sapiens) (UniProt P41143+P35372). The series can be described thus: Receptor selectivity ratio for Opioid receptors delta 1 and mu 1. The series is classed as protein assay.
Series [3] is described as follows: Stimulation of [35S]GTPcS binding against recombinant human opioid receptor delta 1. Type of series: functional.
The nature of series [4]: Stimulation of [35S]GTPcS binding against recombinant human opioid receptor mu 1. Type of series: functional.
The nature of series [5]: Inhibition of [3H]DPDPE binding to recombinant human Opioid receptor delta 1.
The nature of series [6]: Inhibition of [3H]U-69593 binding to recombinant human Opioid receptor kappa 1.
Series [7] in a line: Stimulation of [35S]GTPcS binding against recombinant human opioid receptor kappa 1. Type of series: functional.
For series [8], the species on record is Homo sapiens. The series can be described thus: Percentage stimulation of [35S]-GTPcS binding compared to relevant control. The series is classed as functional.
Series [9] can be described thus: Half life in monkey liver microsomes. Conditions: cercopithecidae. Type of series: ADME, Microsome.
Series [10] is described as follows: Half life in rat liver microsomes. The series is classed as ADME, Microsome.
Series [11] in a line: Half life in human liver microsomes. Type of series: ADME, Microsome.
For series [12], the species on record is Homo sapiens. The series can be described thus: Percentage stimulation of [35S]GTPcS binding compared to relevant control; ND=Not detectable activity. The series is classed as functional.
For series [13], the species on record is Homo sapiens. Kind of series: Percentage stimulation of [35S]GTPcS binding compared to relevant control;ND=no detectable activity. Type of series: functional.
Series [14] can be described thus: Stimulation of [35S]GTPcS binding against recombinant human opioid receptor kappa 1;ND=no detectable activity. The series is classed as functional.

Sequence of Mu-type opioid receptor (P35372 whole entry): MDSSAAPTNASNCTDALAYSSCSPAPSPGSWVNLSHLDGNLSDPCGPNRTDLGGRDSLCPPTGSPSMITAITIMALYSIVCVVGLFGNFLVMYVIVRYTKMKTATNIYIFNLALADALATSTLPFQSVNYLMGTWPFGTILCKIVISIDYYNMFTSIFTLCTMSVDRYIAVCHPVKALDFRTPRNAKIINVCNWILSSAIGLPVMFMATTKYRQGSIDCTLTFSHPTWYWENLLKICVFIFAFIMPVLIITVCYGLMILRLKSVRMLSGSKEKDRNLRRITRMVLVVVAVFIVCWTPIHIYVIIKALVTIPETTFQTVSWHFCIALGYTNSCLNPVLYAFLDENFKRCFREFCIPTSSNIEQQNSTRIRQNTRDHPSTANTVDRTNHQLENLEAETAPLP
Sequence of Opioid receptors; mu & delta (Homo sapiens) (P35372 whole entry, looked up): as the sequence (P35372 whole entry) above
Sequence of Opioid receptors; mu & delta (Homo sapiens) (P41143 whole entry, looked up): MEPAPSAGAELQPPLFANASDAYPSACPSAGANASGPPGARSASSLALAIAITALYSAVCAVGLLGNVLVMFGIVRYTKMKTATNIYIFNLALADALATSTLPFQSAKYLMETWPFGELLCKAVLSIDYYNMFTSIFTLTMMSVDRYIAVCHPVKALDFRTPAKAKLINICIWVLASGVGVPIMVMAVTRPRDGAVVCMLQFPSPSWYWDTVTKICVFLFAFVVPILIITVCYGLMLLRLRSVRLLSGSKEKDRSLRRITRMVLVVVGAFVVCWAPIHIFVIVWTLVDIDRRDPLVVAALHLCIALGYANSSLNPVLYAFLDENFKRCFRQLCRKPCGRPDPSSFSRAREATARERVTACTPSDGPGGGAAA

As for `COC1[C@H](NC(=O)CC2OC(CO)C(O)C(O)C2O)C=C[C@H]2[C@H]3Cc4ccc(O)cc4[C@@]12CCN3C` (some centres not stated) [DEPROTECTED COGENER OF M6G], the inhibitory constant (Ki) in series [1] amounted to 3.5 nM; in [5], 266 nM. Moreover, the Selectivity in series [2] was 76.7 and 166. Besides, the EC50 in series [3] is 335 nM; in [4] it was 37.2 nM.

With `COC1[C@H](SC2OC(CO)C(O)C(O)C2O)C=C[C@H]2[C@H]3Cc4ccc(O)cc4[C@@]12CCN3C` (some centres not stated), the Ki is 136 nM in series [6] and 56.2 nM in series [5]. Further, the Selectivity in series [2] is 10.4 and 25.4. Besides, the half-maximal effective concentration (EC50) in series [3] came out at 192 nM; in series [7] it was 321 nM; in series [4], 91.5 nM. Also, the maximal response (Emax) in series [8] is 42.5% and 64.5% and 51.5%.

Regarding `COC1[C@H](NC(=O)CC2OC(COCc3ccccc3)C(OCc3ccccc3)C(OCc3ccccc3)C2OCc2ccccc2)C=C[C@H]2[C@H]3Cc4ccc(O)cc4[C@@]12CCN3C` (some centres not stated), the results for the half-life in series [9] and in series [10] were 30.7 min and 24.6 min, respectively. Besides, the inhibitory constant (Ki) in series [1] came out at 0.5 nM; in [6], 15.8 nM; in series [5], 7.2 nM. Further, the EC50 in series [3] amounted to 2.2 nM; in [7] it was 1.8 nM; in series [4] it was 623 nM.

Take `COC1[C@H](NC(=O)CC2OC(COCc3ccccc3)C(OCc3ccccc3)C(OCc3ccccc3)C2OCc2ccccc2)CC[C@H]2[C@H]3Cc4ccc(O)cc4[C@@]12CCN3C` (some centres not stated): the figures for the half-life in series [9], in series [10] and in series [11] were 90 min, 19.8 min and 42.9 min, respectively.

As to `CN1CC[C@]23c4c5ccc(O)c4O[C@H]2[C@@H](O[C@@H]2O[C@H](C(=O)O)[C@@H](O)[C@H](O)[C@H]2O)C=C[C@H]3[C@H]1C5` [MORPHINE GLUCURONIDE], the Emax entry in [12] was “inactive”. In addition, the Ki amounted to 12.9 nM in series [1], 4060 nM in series [6] and 170 nM in series [5]. Further, the results for the concentration for a half-maximal effect (EC50) in series [3], in series [7] and in series [4] were 190 nM, more than 10000 nM and 72.3 nM, respectively.

Take `COC1[C@H](SC2OC(C(=O)O)C(O)C(O)C2O)C=C[C@H]2[C@H]3Cc4ccc(O)cc4[C@@]12CCN3C` (some centres not stated): the Ki worked out at 8.7 nM in series [1], 288 nM in series [6] and 31.4 nM in series [5]. The EC50 in series [3] was 50.1 nM; in series [4] it was 90.6 nM; in [14] it was “Not Active”. Also, in series [13], the Emax result is “inactive”.
